# Test results: publication PMC6615598, “Novel antibiotics effective against gram-positive and -negative multi-resistant bacteria with limited resistance” (PLoS Biology, 2019)
# Several values for one entry are separate records, joined by “and”; a condition that tells them apart may be missing. Equal values may be shown once. Starred links: 1 amine or outer side, 2 acyl side, 3 side chain; linkers in the order of their positions; H or OH if unused. Non-standard residues stand in square brackets, D forms with d. Residues, ends and D or L forms follow the SMILES beside them. azaβ3(1Nal) = O=C(CN(Cc1cccc2ccccc12)N[*:1])[*:2]
# Tested on: S. aureus
# Assay: Intracellular ATP levels of SCV versus normal colonies from skin abscesses
# Type: cell-based
# Conditions: individual values
# Method: For the cutaneous abscess model, the mice were randomly divided into 5 sets. The mice were anesthetized with isoflurane, their dorsal fur shaved, and their skin disinfected with 70% ethanol. An overnight culture of S. aureus MRSA or P. aeruginosa LESB58 was washed with 0.9% NaCl, and then a subcutaneous injection of 2 × 10^9 CFUs and an equal amount of sterile Cytodex microcarrier beads (20 mg.ml^−1, Sigma) for S. aureus MRSA, or 10^8 CFUs for P. aeruginosa were injected into the shaved area. […] Mice were monitored every day and then euthanized with CO2 on Day 6 or on Day 3. Abscesses were excised, measured, and homogenized in PBS using an Ultra-Turax. Serial dilutions of the samples were plated on BHI (MRSA) or 2YT medium (LESB58) plates and then incubated overnight at 37°C. Afterward, the CFUs were counted and expressed as log CFU/ml. Dermonecrosis areas were calculated according to the formula π × L × W. ATP levels were determined with an ATP assay kit (Promega) according to manufacturer instructions on sets of 5 colonies harboring the SCV phenotype, and sets of 5 colonies harboring a normal phenotype, after growth on BHI plates.
smiles,measurement,setting,value
CC(C)[C@@H]1NC(=O)[C@H](CCCNC(=N)N)NC(=O)[C@H](CCCNC(=N)N)NC(=O)CN(Cc2cccc3ccccc23)NC(=O)[C@H](Cc2ccccc2)NC(=O)CN(Cc2cccc3ccccc23)NC(=O)[C@H](CCCCN)NC1=O [Pep19] (cyclo([azaβ3(1Nal)]F[azaβ3(1Nal)]RRVK)),"Intracellular ATP level, 'normal growing'",'normal growing' colonies from MRSA abscesses of mice treated IV with 1.5 mg.kg-1,128624 AU and 143636 AU and 122235 AU and 111054 AU and 122356 AU
same,"Intracellular ATP level, SCV",SCV from MRSA abscesses of mice treated IV with 1.5 mg.kg-1,21955.1 AU and 16114.9 AU and 17911.8 AU and 16800 AU and 28088.5 AU
